Here are results for one compound from patent US20090270626A1, “STABLE BISTHIOL COMPOUNDS FOR RA[…] THERAPY” (Organix, Inc., priority 2008, published 2009).

Structures can show the parent of a compound that is named as a salt.

A short description of this data set: Stability of the deprotected bisthiol measured by HPLC with UV and mass detection. Format: physicochemical. The conditions noted are these: room temperature. The protocol:
Stability of compound O-5648 (see Example 1, above) was measured by HPLC with UV and mass detection. The bisthiol free base was stable up to 100 hours at room temperature in methanol exposed to air.
The bisthiol dihydrochloride salt was stable in MeOH up to 150 hours at room temperature.
The solid bisthiol dihydrochloride salt exposed to air was stable for >170 hours at room temperature.

Regarding `CCC(=O)C1C2CC[C@H](C[C@H]1c1ccc(F)cc1)N2CCCN(CCS)CC(=O)NCCS` (stereo partly drawn) [O-5648, N-[2-(3′-N′-Propyl-(1″R)-3″α-(4-fluorophenyl)tropane-2″β-(1-propanoyl)-[(2-mercapto-ethyl)-amino]-(2-mercapto-ethyl-acetamide, dihydrochloride salt], where the note is “bisthiol dihydrochloride salt, in MeOH”, the “time stable (bisthiol dihydrochloride salt in MeOH)” value is “up to 150 hours”. Where the note is “bisthiol free base, in methanol exposed to air”, the “time stable (bisthiol free base in methanol)” value was “up to 100 hours”. Also, the “time stable (solid bisthiol dihydrochloride salt)” value (solid bisthiol dihydrochloride salt exposed to air) was above 170 h.
